Results as given in article PMC5905287, “Synthesis and in vitro biochemical evaluation of oxime bond-linked daunorubicin–GnRH-III conjugates developed for targeted drug delivery” (Beilstein Journal of Organic Chemistry, 2018).
Non-standard residues stand in square brackets, D forms with d. Residues, ends and D or L forms follow the SMILES beside them. *: point of attachment. Daunorubicin(13-NOCH2CO) = COc1cccc2c1C(=O)c1c(O)c3c(c(O)c1C2=O)C[C@@](O)(C(C)=NOCC(=O)*)C[C@@H]3O[C@H]1C[C@H](N)[C@H](O)[C@H](C)O1; pGlu = O=C1CC[C@@H](C(=O)O)N1; Butyryl = CCCC(=O)*

Experiments:
GnRH-RI [1] = target: T1, GnRH-RI (Homo sapiens, UniProt P30968); assay: Competitive inhibition of [125I][6D-Trp]-GnRH-I binding, human pituitary membranes; set-up: human prostate cancer cells were obtained from a patient at the time of initial surgical treatment; from tissue; host or cells: human prostate cancer specimen from a patient (surgery); membrane homogenate
T1 sequence (P30968 1-328): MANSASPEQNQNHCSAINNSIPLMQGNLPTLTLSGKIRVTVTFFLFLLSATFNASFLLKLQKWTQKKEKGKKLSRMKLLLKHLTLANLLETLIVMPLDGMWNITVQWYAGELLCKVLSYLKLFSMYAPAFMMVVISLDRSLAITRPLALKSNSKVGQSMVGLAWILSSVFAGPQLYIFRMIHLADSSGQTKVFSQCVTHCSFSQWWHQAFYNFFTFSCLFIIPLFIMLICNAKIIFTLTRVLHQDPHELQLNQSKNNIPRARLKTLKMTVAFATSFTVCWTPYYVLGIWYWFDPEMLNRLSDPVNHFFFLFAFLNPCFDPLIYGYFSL
Experimental: (§1) To investigate the binding affinity of the novel compounds to the GnRH-receptor, an in vitro ligand competition assay has been performed on human pituitary and GnRH-R positive human prostate cancer tissues. Hereby, the displacement of radiolabeled triptorelin by the unlabeled bioconjugates 1, 2, 4 and 5 was determined. For a better comparison, the bioconjugates K1 and K2 were also analyzed and used as reference. The obtained results summarized in Table 3 point out that all bioconjugates replaced [^125I]-triptorelin with IC50 values in low nanomolar range. […] (1.6 nM and 0.9 nM) and GnRH-II–[D-Lys^6(Dau=Aoa)] (4.2 nM and 2.1 nM).
(§2) Radiolabeled triptorelin was used for displacement studies to evaluate the binding affinity of the conjugates K1, K2, 1, 2, 4 and 5 to GnRH-RI on human pituitary and human prostate cancer cells. […] The binding affinities of the nonradio-labeled GnRH-III bioconjugates to GnRH-RI were determined by displacement of [^125I]-GnRH-I-[^6D-Trp] performing an in vitro ligand competition assay as recently reported. […] Supernatants were aspirated and the bottoms of the tubes containing the pellet were cut off and counted in a gamma counter. Protein concentration was determined by the method of Bradford using a Bio-Rad protein assay kit (Bio-Rad Laboratories, USA). […]

[2] = Degradation in rat liver lysosomal homogenate (LC-MS); type: in vitro ADME; conditions: for incubation time after which the smallest Dau-containing metabolite H-Lys(Dau=Aoa)-OH was detected: pH 5
Experimental: In order to gain insight into the cellular release of the drug, the degradation of the Dau–GnRH-III derivatives 1–6, K1 and K2 was determined in the presence of rat liver lysosomal homogenate at 37 °C. […] However, the degradation level and the cleavage sites within the GnRH-III sequence differ considerably depending on the incorporated amino acids, whereby the hydrolyses of the C-terminus (H-Gly-NH2 and H-Pro-Gly-NH2) occurred first in all eight GnRH-III derivatives. Due to the high chemical and enzymatic stability of the oxime bond, no free Dau was detected by LC–MS. In accordance with our previous results, the digestion of the two peptides containing L-Asp in position 6 (K1, K2) provided the smallest Dau-containing metabolite (H-Lys(Dau=Aoa)-OH, m/z 729.36 [M + H]^+). This metabolite could already be detected after 1 hour of incubation in case of K2 and after 2 hours in case of K1. […] It might be assumed that D-Trp of GnRH-III–[^4Lys(Bu), ^6D-Tpr, ^8Lys(Dau=Aoa)] (6) is also accepted at the cleavage site, but due to the prior hydrolysis of the ^7Trp-^8Lys(Dau=Aoa)-bond an evidential fragment has not been detected. A reason for these diversities might be the subsite specificities of the lysosomal proteases. For instance, lysosomal cysteine proteases also known as cathepsins show a broad substrate specificity. […] For instance, the analyzed fragments of the ^6L-Asp derivatives gave clear hints for the presence of endopeptidases, while the digestion of the ^6D-Aaa compounds 1–3 gave only fragments which evidence the activity of exomono- and/or dipeptidases. Moreover, the obtained results for the bioconjugates that contain ^4Lys(Bu) (K2, 4–6) instead of serine indicate a proteolytic cleavage by lysosomal endopeptidases, which might be of great importance for the release of the smallest Dau-containing metabolite.
The rat liver lysosomal homogenate was prepared as previously described. The protein concentration was determined by Qubit Protein Assay Kit according to the manufacturer’s protocol (ThermoFisher Scientific, Waltham, MA, USA). The bioconjugates were dissolved in ddH2O to a concentration of 5 µg/µL. The reaction was carried out in 0.2 M NaOAc buffer (pH 5), with an identical concentration of bioconjugate and rat liver lysosomal homogenate (0.25 µg/µL). The reaction mixtures were incubated at 37 °C and aliquots of 15 µL were taken at 5 min, 1 h, 2 h, 4 h, 8 h and 24 h and quenched with 2 µL of acetic acid. The analysis of the samples was performed by LC–MS.

GnRH-RI [3] = target: T1, GnRH-RI; assay: Competitive inhibition of [125I][6D-Trp]-GnRH-I binding, human prostate cancer membranes; set-up: human prostate cancer cells were obtained from a patient at the time of initial surgical treatment; from tissue; host or cells: human prostate cancer specimen from a patient (surgery); membrane homogenate
Experimental: as §1, §2

Structure (SMILES)	IC50 (GnRH-RI [1]; displacement of [125I]-triptorelin, human pituitary membranes, mean ± SE, read-out: IC50 pituitary)	incubation time after which the smallest Dau-containing metabolite H-Lys(Dau=Aoa)-OH was detected [2]	IC50 (GnRH-RI [3]; displacement of [125I]-triptorelin, human prostate cancer membranes, mean ± SE, read-out: IC50 prostate cancer)	IC50 (GnRH-RI [1])	incubation time after which the smallest Dau-containing metabolite H-Lys(Dau=Aoa)-OH was detected ([2]; rat liver lysosomal homogenate, 37 °C)	release of the smallest Dau-containing metabolite H-Lys(Dau=Aoa)-OH ([2]; rat liver lysosomal homogenate, 37 °C, up to 24 h)	IC50 (GnRH-RI [3])
COc1cccc2c1C(=O)c1c(O)c3c(c(O)c1C2=O)C[C@@](O)(C(C)=NOCC(=O)NCCCC[C@H](NC(=O)[C@H](Cc1c[nH]c2ccccc12)NC(=O)[C@@H](CCC(=O)O)NC(=O)[C@H](Cc1c[nH]cn1)NC(=O)[C@H](CO)NC(=O)[C@H](Cc1c[nH]c2ccccc12)NC(=O)[C@H](Cc1c[nH]cn1)NC(=O)[C@@H]1CCC(=O)N1)C(=O)N1CCC[C@H]1C(=O)NCC(N)=O)C[C@@H]3O[C@H]1C[C@H](N)[C@H](O)[C@H](C)O1 [compound 2, [6D-Glu, 8Lys(Dau=Aoa)]] ([pGlu]HWSH[dE]WK(Daunorubicin(13-NOCH2CO))PG-NH2)	23.5 ± 2.1 nM	24 h	10.4 ± 1.3 nM				
CCCC(=O)NCCCC[C@H](NC(=O)[C@H](Cc1c[nH]c2ccccc12)NC(=O)[C@H](Cc1c[nH]cn1)NC(=O)[C@@H]1CCC(=O)N1)C(=O)N[C@@H](Cc1c[nH]cn1)C(=O)N[C@H](CCC(=O)O)C(=O)N[C@@H](Cc1c[nH]c2ccccc12)C(=O)N[C@@H](CCCCNC(=O)CON=C(C)[C@]1(O)Cc2c(O)c3c(c(O)c2[C@@H](O[C@H]2C[C@H](N)[C@H](O)[C@H](C)O2)C1)C(=O)c1c(OC)cccc1C3=O)C(=O)N1CCC[C@H]1C(=O)NCC(N)=O [compound 5, [4Lys(Bu), 6D-Glu, 8Lys(Dau=Aoa)]] ([pGlu]HWK(Butyryl)H[dE]WK(Daunorubicin(13-NOCH2CO))PG-NH2)				7.9 ± 1.1 nM	24 h	identified in small amount	11.6 ± 2 nM
